Source: paper PMC9313812, “The Pseudo‐Natural Product Rhonin Targets RHOGDI” (Angewandte Chemie (International Ed. in English), 2022)

Experiments:
[1] = molecular target: T1, RHOGDI1 (Homo sapiens, UniProt P52565); experiment: Fluorescence polarization competition with FITC-labelled GerGer-Rab1 peptide; type: binding; settings: 5 μM FITC-labelled GerGer-Rab1 peptide, 50 μM RHOGDI1
T1 construct: GST; made in house; host or cells: E. coli
Description: Figure 4 Compound 7 a is a RHOGDI1 inhibitor. a) Structure of the affinity probes 8 and 9. b) Affinity‐based enrichment of RHOGDI1 from NIH/3T3 lysates by probe 8 as compared to probe 9 and detection using a RHOGDI1 antibody. c) Competition pulldown was performed as in b in presence of S10a as a competitor. d) Structure of the fluorescent derivative 10. e) Binding of derivative 10 to RHOGDI1‐3. […] Fluorescence polarization measurements using 10 and RHOGDI1‐3. […] Representative data (n=3). P: pellet; S: supernatant. g) Competition of derivative 10 with RAC1. Fluorescence polarization measurements after adding 2 μM prenylated RAC1 or non‐prenylated RAC1 to 2 μM compound 10 and 5 μM RHOGDI1. Representative data (n=3). h) Fluorescence polarization measurements upon titration of 7 a into a mixture of 5 μM FITC‐labelled GerGer‐Rab1 peptide and 50 μM RHOGDI1.

[2] = tested on: NIH/3T3 cells; experiment: Smoothened trafficking (ciliary localization of SMO); type: cell-based; settings: purmorphamine stimulation
Description: in fresh medium containing 0.5 % FBS and 5 nM BODIPY-cyclopamine for 4 h. Afterwards, cell nuclei were stained with 1 µg/ml DAPI for 10 min, samples were washed three times with PBS and subsequently mounted on glass slides using Aqua Polymount (Polysciences Inc).
Images were acquired on an Axiovert Observer Z1 microscope (Carl Zeiss, Germany) using a Plan-Apochromat 63x/1.40 Oil DIC M27 objective.
Additionally, SMO binding was confirmed by flow cytometry. HEK293T cells were seeded (3×10^5 per well) in 6-well plate and transfected with BFP-SMO-expressing plasmid using FuGENE HD transfection reagent according to the manufacturer’s instructions. After 48 h of incubation the medium was replaced by DMEM containing 0.5% FBS, 5 nM BODIPY-cyclopamine and various concentrations of the test compounds or DMSO as a control. […]
projections, after previous background subtraction. For quantification, cilia were identified and […]
Smoothened antibody were measured within these areas. […]
significances were assessed using an unpaired t-test (confidence interval of 95%) with the […]
replicates were performed and for each replicate at least 100 cilia per condition were analyzed.
Reverse transcription- quantitative PCR (RT-qPCR) […]
DNase I digestion step. The concentration of purified RNA was determined by means of the […]

T1 sequence (P52565 whole entry): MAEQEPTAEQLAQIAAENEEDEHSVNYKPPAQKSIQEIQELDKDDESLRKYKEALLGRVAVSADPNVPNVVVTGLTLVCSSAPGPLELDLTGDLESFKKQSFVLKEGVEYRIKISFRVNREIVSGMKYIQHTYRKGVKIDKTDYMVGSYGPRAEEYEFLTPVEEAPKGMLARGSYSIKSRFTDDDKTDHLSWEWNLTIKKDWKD

| SMILES | Competition with binding of RHOGDI1 to GerGer-RAB1 peptide (in words) [1] | Localization of SMO to cilia (in words) [2] |
| --- | --- | --- |
| COC(=O)C1(C(CC(=O)c2ccccc2)c2ccccc2)N=C(c2ccc(Br)cc2)C2C(=O)N(C)C(=O)C21 (stereo not drawn) [7a] | competed | did not affect the localization of SMO to cilia |
| COC(=O)C1(C(CC(=O)c2cccnc2)c2ccccc2)N=C(c2ccc(Br)cc2)C2C(=O)N(C)C(=O)C21 (stereo not drawn) [7l] |  | SMO was localized to the cilia |
